Consider two substances from article PMC9546084, “Effects of Unsuppressed Endogenous Insulin on Pharmacokinetics and/or Pharmacodynamics of Study Insulin in the Healthy: A Retrospective Study” (Clinical Pharmacology in Drug Development, 2022).

The conditions of series [1]: PK corrected by C-peptide; cited from earlier work. The protocol:
In studies in which specific assays for the tested insulin are lacking, C‐peptide was always used to correct endogenous insulin.[37], [38] Some researchers[39] still doubted the use of C‐peptide to correct endogenous insulin because some PK parameters were not consistent (eg, a peak of glargine in plasma occurring at 12 hours[40] differs from those observed in subjects with type 1 diabetes where the increase occurs between ≈3 and 6 hours after the first injection[41] and at steady state[42]). Owens[19] reported the exogenous insulin estimated from C‐peptide was nearly the same as what was true ...

Series [2] can be described thus: manual euglycemic clamp, glucose infusion rate (PD) after subcutaneous insulin aspart. It is filed as in vivo, healthy Chinese male volunteers. Particulars: for GIRmax (maximum glucose infusion rate): 0.2 IU/kg NovoRapid s.c., 8-hour manual euglycemic clamp; for GIRmax (maximum glucose infusion rate) / tGIRmax (time of GIRmax) / AUCGIR,0-8h: mean ± SD; for GIR AUC from time 0.5 to 2 hours after correction for clamped glucose from 0.5 to 2 hours / AUCGIR,0-8h after correction for the overall clamped glucose / tGIRmax (time of GIRmax) / AUCGIR,0-8h: 0.2 IU/kg s.c.; for AUCGIR,0-8h after correction for the overall clamped glucose: analysis of variance with clamped glucose as covariate; for AUCGIR,0-8h: uncorrected. The protocol: (§1) From 3 days before the dosing day on, participants were instructed to abstain from drinking alcohol, smoking tobacco, engaging in strenuous exercise, and ingesting caffeine. Participants came to the research center at approximately 6:00 PM the day before drug administration to ensure an overnight fasting condition of 10 to 12 hours the next morning. Throughout the clamp, the subjects remained fasting and in a supine position. A 20‐gauge polyethylene cannula was inserted into an antecubital vein for infusion of 20% dextrose, and a second 18‐gauge catheter was inserted retrogradely into a wrist vein on the dorsum of the hand to draw blood. The hand for blood drawing was maintained continuously in a heated blanket at 55 to 65°C, allowing sampling of arterialized venous blood. After recording the basal blood glucose level (defined as the mean of the glucose measurement at −30, −20, and −10 minutes), the subjects received a 0.2 IU/kg dose of NovoRapid (Novo Nordisk, Bagsværd, Denmark) by subcutaneous injection into a lifted abdominal skin fold. Blood samples were obtained at the bedside for immediate determination of whole blood glucose concentrations every 5 minutes from 0 to 240 minutes and every 10 minutes from 240 to 480 minutes. During the manual euglycemic clamp procedure, the glucose infusion rate (GIR) was adjusted on the basis of the obtained glucose measurements to maintain euglycemia. A 4‐mL blood sample was collected at each of the following points for analysis of C‐peptide, human insulin, and IAsp levels: −30 and 0 minutes (before dosing) and 10, 20, 30, 40, 50, 60, 90, 120, 150, 180, 210, 240, 270, 300, 360, 420, and 480 minutes after dosing. The baselines for each of C‐peptide, human insulin, and IAsp were defined as the mean of the −30 and 0 minute (before dosing) measurements.
(§2) Whole blood glucose concentrations were tested with a glucose analyzer (Biosen C_line GP+, Neckar Healthcare, Co., Ltd., Magdeburg, Germany) using an automated glucose oxidase technique with a measuring range of 9 to 900 mg/dL and a high precision of 1.5%. Human insulin levels were determined using an ultrasensitive enzyme‐linked immunosorbent assay (ELISA) with monoclonal antibodies that have little or no cross‐reactivity to insulin analogs whose ranges of quantification were 0.0065 to 0.87 ng/mL for human insulin.[22] C‐peptide levels were analyzed using a solid‐phase 2‐site ELISA method based on the direct sandwich technique in which 2 monoclonal antibodies are directed against separate antigenic determinants on the C‐peptide molecule with a measuring range of 0.06 to 9 ng/mL, with an intra‐assay coefficient of variation of 2.87% to 4.50%.[23] IAsp concentrations were assessed by means of an ultra‐performance liquid chromatography–tandem mass spectrometry method, [25] at Covance Laboratories in Shanghai that had no detectable cross‐reactivity with human insulin. Solid‐phase extraction was performed. Liquid chromatography separation was achieved using an Acquity UPLC CSH C18+ column (50 × 2.1 × 1.7 μm; Waters Corp., Milford, Massachusetts). A 20‐μL injection with a 0.60 mL/min flow of water with 0.1% of acetic acid (solvent A) and acetonitrile with 0.1% of acetic acid (solvent B) was used. The gradient elution was as follows: the initial 17.5% B was increased to 29.5% over 3.0 minutes, 29.5% to 50.0% over 0.5 minutes, 50% to 98% over 0.5 minutes, remained at 98% for 1.5 minutes, and returned to initial conditions over 0.5 minute. A mass spectrometer used in the positive ionization mode (ESI+) was used for the analysis of the compounds. […] The cone voltage and collision energy were adjusted to maximize the intensity of the protonated ion and to optimize the signal of aspart insulin: m/z 1133.4→971.8 and for the internal standard bovine insulin 1123.5→963.8. The lower limit of quantification was 0.2 ng/mL, the inter‐ and intravariability were 7.0% and 7.9%, respectively. […]

Series [3] in a line: pharmacokinetics of insulin aspart during the euglycemic clamp (UPLC-MS/MS). It counts as in vivo, healthy Chinese male volunteers. The conditions noted are these: 0.2 IU/kg s.c., mean ± SD; for CIAsp,max (maximum plasma concentration of IAsp): UPLC-MS/MS. The protocol: as §1, §2
The nature of series [4]: adverse reactions/events during clamp and follow-up. It is filed as in vivo, healthy Chinese male volunteers. The conditions noted are these: 33 healthy men; 0.2 IU/kg s.c.; clamp procedures and follow-up period. An excerpt:
Thirty‐three healthy male volunteers (22 in group A and 11 in group B) undergoing a manual euglycemic clamp study were enrolled in this study.

On to glargine, for which the “time of peak of glargine in plasma” value in series [1] is 12 h.

In the case of insulin aspart [IAsp], in series [2] (group A ((CPpostdosing)max > CPbaseline, n = 22)), the “GIRmax (maximum glucose infusion rate)” value was found to be 8.46 ± 2.43 mg/kg/min. In series [2] (group A (n = 22)), the “GIR AUC from time 0.5 to 2 hours after correction for clamped glucose from 0.5 to 2 hours” value is 596 ± 38 mg/kg, the “AUCGIR,0-8h after correction for the overall clamped glucose” value is reported as 1789 ± 107 mg/kg, the “tGIRmax (time of GIRmax)” value was determined as 111 ± 40.6 min and the “AUCGIR,0-8h” value was found to be 1815 ± 551 mg/kg. Moreover, in series [2] (group B ((CPpostdosing)max ≤ CPbaseline, n = 11)), the “GIRmax (maximum glucose infusion rate)” value is recorded as 7.90 ± 1.68 mg/kg/min. Further, in series [2] (group B (n = 11)), the “GIR AUC from time 0.5 to 2 hours after correction for clamped glucose from 0.5 to 2 hours” value was found to be 520 ± 56 mg/kg, the “AUCGIR,0-8h after correction for the overall clamped glucose” value is recorded as 1380 ± 157 mg/kg, the “tGIRmax (time of GIRmax)” value is 113 ± 33.9 min and the “AUCGIR,0-8h” value worked out at 1327 ± 306 mg/kg. In series [3] (group A (n = 22)), the “CIAsp,max (maximum plasma concentration of IAsp)” value turned out to be 4.72 ± 1.46 ng/mL, the “AUCIAsp,0-8h” value turned out to be 527 ± 97.1 ng·min/mL and the “time of CIAsp,max” value is 44.8 ± 11.0 min. Also, in series [3] (group B (n = 11)), the “CIAsp,max (maximum plasma concentration of IAsp)” value came to 5.53 ± 1.61 ng/mL, the “AUCIAsp,0-8h” value was found to be 543 ± 97.2 ng·min/mL and the “time of CIAsp,max” value is 47.3 ± 11.0 min. The “adverse reaction after injection” value in series [4] is given as “no adverse reaction in any subject”.
